In patent US12122821B2, “Regulation of glucose metabolism using anti-CGRP antibodies” (H. LUNDBECK A/S, priority 2013, dated 2024):
Entries after “also recorded” stand apart in the source; their conditions may differ.

Experiments:
HFD rats = test: 2-step hyperinsulinemic-euglycemic clamp in HFD rats (Example 2); assay type: in vivo, rat; settings: metformin 200 mg/kg/day, vs HFD vehicle
Description: Six-week HFD fed rats were treated for 2 weeks with Ab14, and a 2-step hyperinsulinemic euglycemic clamp was performed to assess insulin sensitivity. A physiological dose of insulin was used during the first step and a pharmacological dose of insulin was used during the second step to assess the effects of […] insulin sensitivity, respectively, under these two conditions.
Body weight and food consumption were measured 3 times per week until 10 days of treatment. HOMA-IR was measured on day 10 and 15. A 2-step clamp (5 mU/kg/min and then 15 mU/kg/min insulin) was performed on day 15 or 16. Glucose Turnover (GTO) was assessed using ^3H-glucose tracer infusion during the clamp procedure.
On day 15 or 16, the 2-step hyperinsulinemic-euglycemic clamp was performed using ^3H-glucose as a tracer (except in the normal chow group), and 5 mU/kg/min insulin infusion from 02:00 pm (T0) to 04:00 pm (T+2 h), followed by 15 mU/kg/min insulin infusion from 04:00 pm to 05:30 pm (t+3.5 h). A glucose solution was infused in parallel and the infusion rate was adjusted to reach the steady state (100±10 mg/dL). Blood glucose was measured from the tip of the tail using glucometers every 10 minutes. Blood was collected (10 μL) regularly from the tip of the tail during the steady states of each step.
The following parameters were assessed: Glucose infusion rate (in all groups); Whole body glucose utilization rate (except in the normal chow group); Hepatic glucose production rate (except in the normal chow group); Whole body glycogen and glycolytic rates (except in the normal chow group).

[1] = tested on: Zucker diabetic fatty (ZDF) rat; settings: ZDF rats
Description: Each pancreas was divided into 2 parts (longitudinal cut). One piece was fixed in 10% formalin solution for histopathological processing. The other piece of pancreas was flash frozen and kept at −80° C. for determination of insulin and proinsulin levels.
Each pancreas sample was fixed in 4% formalin during 24-48 hours maximum; the volume of formalin was 5-10 times higher than the sample volume to assure appropriate fixation. After 48 h, the samples were placed in 70% ethanol.

[2] = tested on: Zucker diabetic fatty (ZDF) rat; test: Plasma triglycerides, free fatty acids and cholesterol in ZDF rats (Example 3); assay type: in vivo; settings: for increase of free fatty acids levels: vs vehicle ZDF, not significant
Description: For the groups treated with AB14, the antibody was administered once weekly via the caudal vein (i.v., 5 mL/kg) on days 1, 8, 15, and 22 at two different doses 20 mg/kg/week (groups 3 and 7) or 60 mg/kg/week (groups 4 and 8). All other groups were treated once weekly with vehicle 1 (i.v., 5 mL/kg). The intravenous treatments were performed in the morning on day 1, 8, 15, and 22 while under isoflurane anaesthesia. The volume of administration was individually adapted according to the most recent body weight.
All other groups were treated daily with vehicle 2 (p.o., 5 mL/kg) for 28 days. The most recent body weight was used to calculate the average volume of administration in each group.
A fasting (6 hours on day 0 from 8:00 am to 02:00 pm, and overnight on day 12, 19 and 26 from ˜6:00 pm to ˜8:00 am) was performed before each blood collection. Blood was collected at ˜2:00 pm, from the tip of the tail, on day 0 (before screening, 150 μL, potassium EDTA), and at ˜8:00 am prior to dosing on days 12 (110 μL, potassium EDTA), 19 (150 μL, potassium EDTA) and 26, (110 μL, potassium EDTA).
Fasting blood glucose (glucometers) was measured on days 0, 12, 19, and 26. Fasting plasma insulin, peptide-C (ELISA method), free fatty acids, triglycerides, total cholesterol (colorimetric method), and HDL-cholesterol (phosphotungstate precipitation, colorimetric method) were measured on day 0, and prior to dosing on days 12, 19, and day 26. Non HDL-cholesterol was calculated as total cholesterol—HDL-cholesterol. Fructosamine was measured on days 0, 19 and 28. HbA1c (DCA 2000) was measured on days 0 and 28.

[3] = Ab14 60 mg/kg/wk., Met. 200 mg/kg/day

CN(C)C(=N)N=C(N)N [metformin, reference compound]
GIR (plateau) during the first clamp step (HFD rats; 5 mU/kg/min insulin, Ab14 treated groups (10, 30, 100 mg/kg)): increasing effect upon GIR that was comparatively less in magnitude; also recorded: no effect | increase of mean GIR, first step (HFD rats; 5 mU/kg/min insulin, ns): 11% | HGP, second step (HFD rats; 15 mU/kg/min insulin): completely inhibited | increase of mean GIR, second step (HFD rats; 15 mU/kg/min insulin): 27% | vacuolization and islet fibrosis severity ([1]; AB14 60 mg/kg, metformin, or combined, vs vehicle ZDF): trend towards a decrease | Arteries, medial/intimal hypertrophy, severity 0, incidence [1, 3]: 9 | Arteries, medial/intimal hypertrophy, severity 1, incidence [1, 3]: 1 | Brown pigment-laden, severity 1, incidence [1, 3]: 7 | Brown pigment-laden, severity 2, incidence [1, 3]: 3 | Eosinophilic granulocyte infiltration, severity 0, incidence [1, 3]: 10 | Exocrine cell vacuolation, severity 0, incidence [1, 3]: 10 | Fat tissue: Fat tissue necrosis, group mean score [1, 3]: 0 | Interstitial fibroplasia/fibrosis, severity 0, incidence [1, 3]: 9 | Interstitial fibroplasia/fibrosis, severity 1, incidence [1, 3]: 1 | Interstitial hemorrhage, severity 0, incidence [1, 3]: 4 | Interstitial hemorrhage, severity 1, incidence [1, 3]: 6 | Islet Cell Vacuolation, severity 0, incidence [1, 3]: 1 | Islet Cell Vacuolation, severity 1, incidence [1, 3]: 4 | Islet Cell Vacuolation, severity 2, incidence [1, 3]: 5 | Islet Fibrosis, severity 1, incidence [1, 3]: 3 | Islet Fibrosis, severity 2, incidence [1, 3]: 7 | Islet cell anisocytosis/anisokaryosis, severity 0, incidence [1, 3]: 2 | Islet cell anisocytosis/anisokaryosis, severity 1, incidence [1, 3]: 8 | Islet cell mitosis, severity 0, incidence [1, 3]: 5 | Islet cell mitosis, severity 1, incidence [1, 3]: 5 | Islet cell single cell necrosis, severity 0, incidence [1, 3]: 7 | Islet cell single cell necrosis, severity 1, incidence [1, 3]: 3 | Islet granulocytic infiltration, severity 0, incidence [1, 3]: 6 | Islet granulocytic infiltration, severity 1, incidence [1, 3]: 4 | Islet hemorrhage, severity 0, incidence [1, 3]: 8 | Islet hemorrhage, severity 1, incidence [1, 3]: 2 | Large/Giant Islets, severity 0, incidence [1, 3]: 1 | Large/Giant Islets, severity 1, incidence [1, 3]: 1 | Large/Giant Islets, severity 2, incidence [1, 3]: 3 | Large/Giant Islets, severity 3, incidence [1, 3]: 5 | Lymph node: Brown pigment-laden macrophages, group mean score [1, 3]: 0 | Lymph node: Eosinophilic granulocyte infiltration, group mean score [1, 3]: 0.5 | Lymph node: Erythrophagocytosis—sinusoidal, group mean score [1, 3]: 0 | Lymph node: Pink protein rich sinusoidal lymph, group mean score [1, 3]: 0 | Lymph node: Sinusoidal hemorrhage, group mean score [1, 3]: 0 | Lymph node: Sinusoidal mast cells, group mean score [1, 3]: 0 | Mononuclear cell infiltration, severity 1, incidence [1, 3]: 10 | Pancreas: Arteries, medial/intimal hypertrophy, group mean score [1, 3]: 0 | Pancreas: Brown pigment-laden macrophages, group mean score [1, 3]: 1 | Pancreas: Eosinophilic granulocyte infiltration, group mean score [1, 3]: 0 | Pancreas: Exocrine cell vacuolation, group mean score [1, 3]: 0 | Pancreas: Interstitial fibroplasia/fibrosis, group mean score [1, 3]: 0 | Pancreas: Interstitial hemorrhage, group mean score [1, 3]: 1 | Pancreas: Islet cell anisocytosis/anisokaryosis, group mean score [1, 3]: 1 | Pancreas: Islet cell mitosis, group mean score [1, 3]: 0.5 | Pancreas: Islet cell single cell necrosis, group mean score [1, 3]: 0 | Pancreas: Islet cell vacuolation, group mean score [1, 3]: 1.5 | Pancreas: Islet fibrosis, group mean score [1, 3]: 2 | Pancreas: Islet granulocytic infiltration, group mean score [1, 3]: 0 | Pancreas: Islet hemorrhage, group mean score [1, 3]: 0 | Pancreas: Large/giant islet(s), group mean score [1, 3]: 2.5 | Pancreas: Mononuclear cell infiltration, group mean score [1, 3]: 1 | Pancreas: Pancreatic ductule hyperplasia, group mean score [1, 3]: 0.5 | Pancreatic ductule hyperplasia, severity 0, incidence [1, 3]: 5 | Pancreatic ductule hyperplasia, severity 1, incidence [1, 3]: 5 | increase of plasma triglycerides levels ([2]; day 12, metformin 200 mg/kg/day, vs vehicle): 26% | increase of free fatty acids levels ([2]; day 12, metformin 200 mg/kg/day): 14% | increase of plasma triglycerides levels ([2]; day 19, metformin 200 mg/kg/day, vs vehicle): 40% | increase of free fatty acids levels ([2]; day 19, metformin 200 mg/kg/day): 25% | increase of plasma triglycerides levels ([2]; day 26, metformin 200 mg/kg/day, vs vehicle): 49% | increase of free fatty acids levels ([2]; day 26, metformin 200 mg/kg/day): 8% | non HDL-cholesterol levels ([2]; metformin 200 mg/kg/day alone or in combination with AB14, vs vehicle): no effect | plasma HDL-cholesterol ([2]; metformin 200 mg/kg/day alone, vs vehicle): no effect
